Patent publication US9920063B2, “Melampomagnolide B derivatives” (Board of Trustees of the University of Arkansas, priority 2013, dated 2018)
Where two headings read alike, the source gives them in different places.

What was measured:
COLO 205 = test: NCI human tumor cell line panel, Colon Cancer; type: cell-based
SW-620 = test: NCI human tumor cell line panel, Colon Cancer

## C=C1C(=O)O[C@H]2[C@H]1CC/C(COC(=O)c1cc3ccccc3[nH]1)=C\CC[C@@]1(C)O[C@@H]21 [BS-1-28]
COLO 205; Log10 Concentration −4.0
  Percent Growth: −63%
COLO 205; Log10 Concentration −5.0
  Percent Growth: −61%
COLO 205; Log10 Concentration −6.0
  Percent Growth: 39%
COLO 205; Log10 Concentration −7.0
  Percent Growth: 60%
COLO 205; Log10 Concentration −8.0
  Percent Growth: 27%
COLO 205; NCI five dose
  TGI: 2.44E−6
HL-60(TB); Log10 Concentration −4.0
  Percent Growth: −57%
HL-60(TB); Log10 Concentration −5.0
  Percent Growth: −17%
HL-60(TB); Log10 Concentration −6.0
  Percent Growth: 28%
HL-60(TB); Log10 Concentration −7.0
  Percent Growth: 112%
HL-60(TB); Log10 Concentration −8.0
  Percent Growth: 114%
HL-60(TB); NCI five dose
  GI50: 0.546 µM
  TGI: 4.15E−6
HL-60(TB); read-out: LC50, NCI five dose
  CC50: 65.8 µM
HOP-92
  CC50: 4.66 µM
HOP-92; HOP-92, Log10 Concentration −4.0
  Percent Growth: −97%
HOP-92; HOP-92, Log10 Concentration −5.0
  Percent Growth: −91%
HOP-92; HOP-92, Log10 Concentration −6.0
  Percent Growth: 40%
HOP-92; HOP-92, Log10 Concentration −7.0
  Percent Growth: 71%
HOP-92; HOP-92, Log10 Concentration −8.0
  Percent Growth: 74%
HOP-92; HOP-92, NCI five dose
  GI50: 0.48 µM
  TGI: 2.02E−6
NCI-H460
  CC50: 7.75 µM
NCI-H460; NCI-H460, Log10 Concentration −4.0
  Percent Growth: −75%
NCI-H460; NCI-H460, Log10 Concentration −5.0
  Percent Growth: −67%
NCI-H460; NCI-H460, Log10 Concentration −6.0
  Percent Growth: 86%
NCI-H460; NCI-H460, Log10 Concentration −7.0
  Percent Growth: 101%
NCI-H460; NCI-H460, Log10 Concentration −8.0
  Percent Growth: 166%
NCI-H460; NCI-H460, NCI five dose
  GI50: 1.73 µM
  TGI: 3.66E−6
HCC-2998
  CC50: 8.77 µM
HCC-2998; HCC-2998, Log10 Concentration −4.0
  Percent Growth: −84%
HCC-2998; HCC-2998, Log10 Concentration −5.0
  Percent Growth: −59%
HCC-2998; HCC-2998, Log10 Concentration −6.0
  Percent Growth: 104%
HCC-2998; HCC-2998, Log10 Concentration −7.0
  Percent Growth: 104%
HCC-2998; HCC-2998, Log10 Concentration −8.0
  Percent Growth: 103%
HCC-2998; HCC-2998, NCI five dose
  GI50: 2.14 µM
  TGI: 4.33E−6
HCT-116
  CC50: 0.841 µM
HCT-116; HCT-116, Log10 Concentration −4.0
  Percent Growth: −91%
HCT-116; HCT-116, Log10 Concentration −5.0
  Percent Growth: −94%
HCT-116; HCT-116, Log10 Concentration −6.0
  Percent Growth: −62%
HCT-116; HCT-116, Log10 Concentration −7.0
  Percent Growth: 96%
HCT-116; HCT-116, Log10 Concentration −8.0
  Percent Growth: 97%
HCT-116; HCT-116, NCI five dose
  GI50: 0.196 µM
  TGI: 4.06E−7
HCT-15
  CC50: 2.43 µM
HCT-15; HCT-15, Log10 Concentration −4.0
  Percent Growth: −82%
HCT-15; HCT-15, Log10 Concentration −5.0
  Percent Growth: −64%
HCT-15; HCT-15, Log10 Concentration −6.0
  Percent Growth: −41%
HCT-15; HCT-15, Log10 Concentration −7.0
  Percent Growth: 94%
HCT-15; HCT-15, Log10 Concentration −8.0
  Percent Growth: 93%
HCT-15; HCT-15, NCI five dose
  GI50: 0.211 µM
  TGI: 4.95E−7
HT29
  CC50: 5.97 µM
HT29; HT29, Log10 Concentration −4.0
  Percent Growth: −80%
HT29; HT29, Log10 Concentration −5.0
  Percent Growth: −57%
HT29; HT29, Log10 Concentration −6.0
  Percent Growth: −25%
HT29; HT29, Log10 Concentration −7.0
  Percent Growth: 109%
HT29; HT29, Log10 Concentration −8.0
  Percent Growth: 103%
HT29; HT29, NCI five dose
  GI50: 0.276 µM
  TGI: 6.51E−7
SF-295
  CC50: 12 µM
SF-295; SF-295, Log10 Concentration −4.0
  Percent Growth: −95%
SF-295; SF-295, Log10 Concentration −5.0
  Percent Growth: .46%
SF-295; SF-295, Log10 Concentration −6.0
  Percent Growth: 79%
SF-295; SF-295, Log10 Concentration −7.0
  Percent Growth: 89%
SF-295; SF-295, Log10 Concentration −8.0
  Percent Growth: 85%
SF-295; SF-295, NCI five dose
  GI50: 1.71 µM
  TGI: 4.28E−6
U251
  CC50: 8.68 µM
U251; U251, Log10 Concentration −4.0
  Percent Growth: −74%
U251; U251, Log10 Concentration −5.0
  Percent Growth: −59%
U251; U251, Log10 Concentration −6.0
  Percent Growth: 92%
U251; U251, Log10 Concentration −7.0
  Percent Growth: 96%
U251; U251, Log10 Concentration −8.0
  Percent Growth: 98%
U251; U251, NCI five dose
  GI50: 1.69 µM
  TGI: 4.06E−6
M14
  CC50: 5.76 µM
M14; M14, Log10 Concentration −4.0
  Percent Growth: −92%
M14; M14, Log10 Concentration −5.0
  Percent Growth: −80%
M14; M14, Log10 Concentration −6.0
  Percent Growth: 46%
M14; M14, Log10 Concentration −7.0
  Percent Growth: 87%
M14; M14, Log10 Concentration −8.0
  Percent Growth: 88%
M14; M14, NCI five dose
  GI50: 0.814 µM
  TGI: 2.32E−6
SK-MEL-5
  CC50: 5.12 µM
SK-MEL-5; SK-MEL-5, Log10 Concentration −4.0
  Percent Growth: −95%
SK-MEL-5; SK-MEL-5, Log10 Concentration −5.0
  Percent Growth: −98%
SK-MEL-5; SK-MEL-5, Log10 Concentration −6.0
  Percent Growth: 67%
SK-MEL-5; SK-MEL-5, Log10 Concentration −7.0
  Percent Growth: 92%
SK-MEL-5; SK-MEL-5, Log10 Concentration −8.0
  Percent Growth: 96%
SK-MEL-5; SK-MEL-5, NCI five dose
  GI50: 1.26 µM
  TGI: 2.54E−6
MCF7
  CC50: 6.69 µM
MCF7; MCF7, Log10 Concentration −4.0
  Percent Growth: −56%
MCF7; MCF7, Log10 Concentration −5.0
  Percent Growth: −63%
MCF7; MCF7, Log10 Concentration −6.0
  Percent Growth: 11%
MCF7; MCF7, Log10 Concentration −7.0
  Percent Growth: 88%
MCF7; MCF7, Log10 Concentration −8.0
  Percent Growth: 63%
MCF7; MCF7, NCI five dose
  GI50: 0.302 µM
  TGI: 1.39E−6
HS 57BT
  CC50: > 100 µM
HS 57BT; HS 57BT, Log10 Concentration −4.0
  Percent Growth: −20%
HS 57BT; HS 57BT, Log10 Concentration −5.0
  Percent Growth: −5%
HS 57BT; HS 57BT, Log10 Concentration −6.0
  Percent Growth: 78%
HS 57BT; HS 57BT, Log10 Concentration −7.0
  Percent Growth: 84%
HS 57BT; HS 57BT, Log10 Concentration −8.0
  Percent Growth: 47%
HS 57BT; HS 57BT, NCI five dose
  TGI: 8.71E−6
BT-549
  CC50: 2.64 µM
BT-549; BT-549, Log10 Concentration −4.0
  Percent Growth: −99%
BT-549; BT-549, Log10 Concentration −5.0
  Percent Growth: −88%
BT-549; BT-549, Log10 Concentration −6.0
  Percent Growth: −22%
BT-549; BT-549, Log10 Concentration −7.0
  Percent Growth: 14%
BT-549; BT-549, Log10 Concentration −8.0
  Percent Growth: −30%
BT-549; BT-549, NCI five dose
  GI50: < 0.01 µM
BT-549; BT-549 breast cancer cell line
  GI50: < 0.01 µM
T-47D
  CC50: > 100 µM
  GI50: < 0.01 µM
T-47D; T-47D, Log10 Concentration −4.0
  Percent Growth: −33%
T-47D; T-47D, Log10 Concentration −5.0
  Percent Growth: −43%
T-47D; T-47D, Log10 Concentration −6.0
  Percent Growth: 35%
T-47D; T-47D, Log10 Concentration −7.0
  Percent Growth: 40%
T-47D; T-47D, Log10 Concentration −8.0
  Percent Growth: −2%
T-47D; T-47D, NCI five dose
  GI50: < 0.01 µM
MDA-MB-468
  CC50: 5.17 µM
MDA-MB-468; MDA-MB-468, Log10 Concentration −4.0
  Percent Growth: −52%
MDA-MB-468; MDA-MB-468, Log10 Concentration −5.0
  Percent Growth: −71%
MDA-MB-468; MDA-MB-468, Log10 Concentration −6.0
  Percent Growth: 3%
MDA-MB-468; MDA-MB-468, Log10 Concentration −7.0
  Percent Growth: 95%
MDA-MB-468; MDA-MB-468, Log10 Concentration −8.0
  Percent Growth: 76%
MDA-MB-468; MDA-MB-468, NCI five dose
  GI50: 0.307 µM
  TGI: 1.10E−6
SW-620; Log10 Concentration −4.0
  Percent Growth: −75%
SW-620; Log10 Concentration −5.0
  Percent Growth: −67%
SW-620; Log10 Concentration −6.0
  Percent Growth: −19%
SW-620; Log10 Concentration −7.0
  Percent Growth: 98%
SW-620; Log10 Concentration −8.0
  Percent Growth: 93%
SW-620; NCI five dose
  GI50: 0.256 µM
  TGI: 8.88E−7
SW-620; read-out: LC50, NCI five dose
  CC50: 4.47 µM
